Test results reported in US8975275B2, “Use of chemotherapeutic agents” (priority 1999, dated 2015).
Counter-ions that a name gives are not always drawn.

How the values were obtained:
periodontal diseases = experiment: Topical treatment of periodontal diseases (patient cases); assay type: in vivo, human
Excerpt: To do this, threads or so-called chips impregnated with solutions or gelatinous preparations of the compounds of formula (I) or formula (II) are inserted in the gingival pocket. A possible alternative is to use medicament carriers in the form of trays covering the teeth and gingiva. Before they are applied, the gelatinous applications of the compounds of formula (I) or formula (II) are instilled into the gingival pockets. In addition, the gel containing the compounds of formula (I) or formula (II) can also be placed in the medicament carrier. This use of medicament carriers is advantageous because the treatment time can be reduced by the rapid onset of action to about 15 to 30 minutes, so the treatment can be carried out directly in the surgery. The compounds of formula (I) or formula (II) can be used in concentrations of 0.005 mg/ml to 200 mg/ml. Preferred concentrations are those ranging from 0.5 mg/ml to 200 mg/ml and particularly preferred concentrations are those ranging from 10 to 150 mg/ml. Periodontal diseases can also be treated by administering the compounds of formula (I) or formula (II) by intraligamental injection, it being possible to use concentrations ranging from 0.005 mg/ml to 200 mg/ml, preferably from 0.5 mg/ml to 200 mg/ml. For the antibiotics commonly used nowadays, such as tetracyclines, an intraligamental injection is not reasonable since these compounds with a predominantly bacteriostatic action are quickly washed out due to the rapid fluid exchange in the periodontal interstice, and cannot develop their action. Tetra-cyclines can therefore only develop their effects via depot formulations. By contrast, the compounds of formula (I) or formula (II) have a very rapid and also bactericidal action, so their residence time in the periodontal interstice is sufficient to destroy the microbes.

[1] = system: pulpitis due to carious diseases; experiment: Topical treatment of pulpitis due to carious diseases (patient cases); assay type: in vivo, human
Excerpt: This is of great importance because, for example in the case of caries profunda, it is always necessary to decide whether softened residual dentin can be left over the pulp. By virtue of complete elimination of the microbes present, there is now a novel method of treatment wherein a thin softened dentin covering can be left if the compounds of formula (I) or formula (II) are used. This method of treatment makes it possible to free infected dentin layers of microbes and to stop pulp infections. This means that pain reactions are eliminated and pulp infections are to a certain extent cured. The pulp remains vital. The topical application of the compounds of formula (I) or formula (II) followed the removal of the carious dentin. The compounds of formula (I) or formula (II) were applied for example in aqueous solution, in a form of gelatinous consistency or on an inert carrier, for example by means of a cotton wool plug. The overlying cavity was occluded with a cement to seal the margins. The cotton wool plug was left in the cavity for three to six days. The compounds of formula (I) or formula (II) can be used in concentrations of 0.005 mg/ml to 200 mg/ml, Preferred concentrations are those ranging from 0.5 mg/ml to 150 mg/ml and particularly preferred concentrations are those ranging from 10 to 100 mg/ml.

osseomucosal wounds = experiment: Topical treatment of osseomucosal wounds (patient cases); assay type: in vivo, human
Excerpt: Application is effected by flushing and/or by means of strip inserts impregnated with compounds of formula (I) or formula (II). They are to be used for example for postoperative infections following dentosurgical interventions (extractions). For this purpose the gel containing the compound of formula (I) or formula (II) is syringed directly into the extraction wound or onto a collagen sponge which remains in the extraction wound. The wound is closed for about half an hour by biting on a tampon. Prophylactic applications have been particularly successful after the extraction of teeth with focal infections, Liquid forms of administration suitable for flushing fistulae are those containing the compounds of formula (I) or formula (II) in concentrations of 0.005 mg/ml to 250 mg/ml. Preferred concentrations are those ranging from 0.5 to 100 mg/ml, Forms suitable for coating strips are gels containing the compounds of formula (I) or formula (II), as well as aqueous solutions or suspensions. These applications can contain the compounds of formula (I) or formula (II) in concentrations of 0.005 mg/ml to 200 mg/ml. Preferred concentrations for solutions are those ranging from 0.1 to 50 mg/ml Gelatinous forms of administration in concentrations of 25-150 mg/ml are preferred in the case of strip inserts.

[2] = system: infected root canal and periapical region; experiment: Topical treatment of the infected root canal and the periapical region (patient cases); assay type: in vivo, human
Method: In the clinical use of the compounds of formula (I) or formula (II), the pulp residues are removed first. The preparation of the canals is carried out with minimum discomfort for the patient. The canals are then flushed with hydrogen peroxide, Other methods of disinfection can be omitted. The compounds of formula (I) or formula (II), in a liquid form of administration, are then introduced into the toot canal under pressure using a cannula. The compounds of formula (I) or (II) are then injected in dissolved form or in a gelatinous form of administration. The root canal is subsequently occluded in the crown region, first with a cotton wool plug and then with zinc phosphate cement to seal the margins. If the canals are not gangrenous, the antibiotics remain in the canals for 3 days. […] The compounds of formula (I) or formula (II) can be used in concentrations of 0.005 mg/ml to 200 mg/ml.
In this application technique, which is known from intraligamental anaesthesia, the tooth is completely flooded with the antibacterial solution of the compounds of formula (I) or formula (II) in the entire root region.

[3] = system: Staphylococcus aureus strains; conditions: microorganisms isolated from the root canals after topical antibiotic treatment; cited from earlier work
Staphylococcus epidermis = conditions: microorganisms isolated from the root canals after topical antibiotic treatment; cited from earlier work
bacteraemia = conditions: systemic administration ten minutes prior to a dental extraction; cited from earlier work

## Cc1c(F)c(N2CCNC(C)C2)cc2c1c(=O)c(C(=O)O)cn2C1CC1 (stereo not drawn) [grepafloxacin, 1-cyclopropyl-6-fluoro-1,4-dihydro-5-methyl-7-(3-methyl-1-piperazinyl)-4-oxo-3-quinolinecarboxylic acid]
Periodontal diseases; Patient B 7, teeth 14-17 marginal periodontitis, thread insert gel 50 mg/ml + intraligamental injection 50 mg/ml, check-up after 9 days
  clinical finding at check-up: patient symptom-free, gingival regions and pockets inflammation-free
[1]; Patient A 1.11, gel 25 mg/ml, after final filling, check-up after 4 weeks
  clinical finding at check-up: tooth vital, patient symptom-free
[1]; Patient A 1.11, tooth 22, pellet insert gel 25 mg/ml, check-up after 5 days
  clinical finding at check-up: patient was symptom-free
[1]; Patient A 1.12, gel 50 mg/ml, after final filling, check-up after 14 days
  clinical finding at check-up: teeth vital, patient symptom-free
[1]; Patient A 1.12, teeth 22, 23, pellet inserts gel 50 mg/ml, check-up after 1 week
  clinical finding at check-up: teeth symptom-free
Osseomucosal wounds; Patient C 8, apical granulomas, extraction (osteotomy), gauze with gel 50 mg/ml, check-up after 3 days
  clinical finding at check-up: patient is symptom-free
Osseomucosal wounds; Patient C 9, same combined treatment, after root canal filling, check-up after 2 weeks
  clinical finding at check-up: patient symptom-free
Osseomucosal wounds; Patient C 9, tooth 14 pulpitis purulenta, fistulation, moxifloxacin hydrochloride solution 25 mg/ml flushing + grepafloxacin gel 25 mg/ml canal insert + moxifloxacin hydrochloride gel 25 mg/ml gauze insert, check-up after 6 days
  clinical finding at check-up: patient symptom-free
[2]; Patient A 3.16, after root filling, check-up after 1 week
  clinical finding at check-up: patient still symptom-free
[2]; Patient A 3.16, tooth 46 apical periodontitis, not gangrenous, root canal insert gel 50 mg/ml, check-up after 3 weeks
  clinical finding at check-up: patient symptom-free
[2]; Patient A 3.17, after root filling, check-up after 4 days
  clinical finding at check-up: patient symptom-free
[2]; Patient A 3.17, tooth 32 apical periodontitis due to gangrene, solution 20 mg/ml + gel 20 mg/ml + intraligamental injection 50 mg/ml, check-up after 6 days
  clinical finding at check-up: no gangrenous odour, no bite discomfort
[2]; Patient A 3.23, tooth 34 fistulation, gangrenous, solution 50 mg/ml by paper point + intraligamental injection 50 mg/ml, check-up after 10 days
  clinical finding at check-up: patient symptom-free

## NC1CCN(c2nc3c(cc2F)c(=O)c(C(=O)O)cn3-c2ccc(F)cc2F)C1 (stereo not drawn) [tosufloxacin tosylate, 7-(3-amino-1-pyrrolidinyl)-1-(2,4-difluorophenyl)-6-fluoro-1,4-dihydro-4-oxo-1,8-naphthyridine-3-carboxylic acid]
[2]; Patient A 3.20, tooth 47 apical periodontitis, not gangrenous, root canal insert gel 100 mg/ml, check-up after 8 days
  clinical finding at check-up: patient symptom-free
[2]; Patient A 3.22, tooth 35 apical periodontitis, not gangrenous, root canal insert gel 50 mg/ml, check-up after 10 days
  clinical finding at check-up: patient symptom-free

## C[C@@H]1CN(c2c(F)c(N)c3c(=O)c(C(=O)O)cn(C4CC4)c3c2F)C[C@H](C)N1 [sparfloxacin, 5-amino-1-cyclopropyl-7-[(3R,5S)-3,5-dimethyl-1-piperazinyl]-6,8-difluoro-1,4-dihydro-4-oxo-3-quinolinecarboxylic acid]
[1]; Patient A 1.16, gel 25 mg/ml, repetition of insert, check-up after 14 days
  clinical finding at check-up: patient symptom-free, tooth vital
[1]; Patient A 1.16, tooth 46 reduced vitality, pellet insert gel 25 mg/ml, check-up after 4 days
  clinical finding at check-up: still slight sensitivity to heat

## O=C(N[C@H](CO)[C@H](O)c1ccc([N+](=O)[O-])cc1)C(Cl)Cl [chloramphenicol]
[3]
  resistance of strains: majority of Staphylococcus aureus strains were resistant

## CO/N=C1\CN(c2nc3c(cc2F)c(=O)c(C(=O)O)cn3C2CC2)CC1CN (stereo not drawn) [gemifloxacin mesylate, 7-[(4Z)-3-(aminomethyl)-4-(methoxyimino)-1-pyrrolidinyl]-1-cyclopropyl-6-fluoro-1,4-dihydro-4-oxo-1,8-naphtyridine-3-carboxylic acid]
[1]; Patient A 1.13, gel 25 mg/ml, repetition of insert, check-up after 4 days
  clinical finding at check-up: tooth vital, patient symptom-free
[1]; Patient A 1.13, tooth 14, pellet insert gel 25 mg/ml, check-up after 3 weeks
  clinical finding at check-up: still slight discomfort

## CC[C@H]1OC(=O)[C@H](C)[C@@H](O[C@H]2C[C@@](C)(OC)[C@@H](O)[C@H](C)O2)[C@H](C)[C@@H](O[C@@H]2O[C@H](C)C[C@H](N(C)C)[C@H]2O)[C@](C)(O)C[C@@H](C)C(=O)[C@H](C)[C@@H](O)[C@]1(C)O [erythromycin]
Staphylococcus epidermis
  increase of resistance after the treatment: three-fold
[3]
  resistance of strains: majority of Staphylococcus aureus strains were resistant

## penicillin
[3]
  resistance of strains: majority of Staphylococcus aureus strains were resistant

## CO/N=C(\C(=O)N[C@@H]1C(=O)N2C(C(=O)O)=C(COC(N)=O)CS[C@H]12)c1ccco1 [cefuroxim]
bacteraemia
  frequency of bacteraemia versus the untreated group: lower frequency

## N[C@@H]1[C@H]2CN(c3nc4c(cc3F)c(=O)c(C(=O)O)cn4-c3ccc(F)cc3F)C[C@@H]12 [trovafloxacin mesylate, 7-(1α,5α,6α-6-amino-3-azabicyclo[3.1.0]hex-3-yl)-1-(2,4-difluorophenyl)-6-fluoro-1,4-dihydro-4-oxo-1,8-naphthyridine-3-carboxylic acid]
Periodontal diseases; Patient B 8, marginal periodontitis entire upper and lower jaw, medicinal splint gel 0.25 mg/ml 10 minutes/day for 6 days, check-up after 6 days
  clinical finding at check-up: patient symptom-free, inflammation phenomena no longer present
[1]; Patient A 1.15, tooth 44, night pain, pellet insert gel 50 mg/ml, check-up after 9 days
  clinical finding at check-up: patient symptom-free, tooth vital
[2]; Patient A 3.18, tooth 34 apical periodontitis due to gangrene, gel 100 mg/ml + intraligamental injection 50 mg/ml, check-up after 12 days
  clinical finding at check-up: patient symptom-free
[2]; Patient A 3.19, tooth 11 apical periodontitis due to gangrene simplex, root canal insert solution 50 mg/ml, check-up after 3 weeks
  clinical finding at check-up: patient symptom-free, canal odour-free

## COc1cccc(OC)c1C(=O)N[C@@H]1C(=O)N2[C@@H]1SC(C)(C)[C@@H]2C(=O)O [methicillin]
Staphylococcus epidermis
  increase of resistance after the treatment: two-fold

## C[C@H]1COc2c(N3CCN(C)CC3)c(F)cc3c(=O)c(C(=O)O)cn1c23 [levofloxacin, (3S)-9-fluoro-2,3-dihydro-3-methyl-10-(4-methyl-1-piperazinyl)-7-oxo-7H-pyrido[1,2,3-de]-1,4-benzoxazine-6-carboxylic acid]
[1]; Patient A 1.14, tooth 13, night pain, pellet inserts gel 50 mg/ml, check-up after 14 days
  clinical finding at check-up: patient symptom-free, tooth vital
